Experimental data taken from ChEMBL document CHEMBL1135166, “Synthesis of triazole-Tethered pyrrolidine libraries: novel ECE inhibitors” (Bioorg Med Chem Lett, 2002).

target: T1, Endothelin-converting enzyme 1 (Homo sapiens) (UniProt P42892); experiment: (§1) Tested for inhibitory concentration against human Endothelin-converting enzyme 1 at 10 uM
T1 sequence (whole entry): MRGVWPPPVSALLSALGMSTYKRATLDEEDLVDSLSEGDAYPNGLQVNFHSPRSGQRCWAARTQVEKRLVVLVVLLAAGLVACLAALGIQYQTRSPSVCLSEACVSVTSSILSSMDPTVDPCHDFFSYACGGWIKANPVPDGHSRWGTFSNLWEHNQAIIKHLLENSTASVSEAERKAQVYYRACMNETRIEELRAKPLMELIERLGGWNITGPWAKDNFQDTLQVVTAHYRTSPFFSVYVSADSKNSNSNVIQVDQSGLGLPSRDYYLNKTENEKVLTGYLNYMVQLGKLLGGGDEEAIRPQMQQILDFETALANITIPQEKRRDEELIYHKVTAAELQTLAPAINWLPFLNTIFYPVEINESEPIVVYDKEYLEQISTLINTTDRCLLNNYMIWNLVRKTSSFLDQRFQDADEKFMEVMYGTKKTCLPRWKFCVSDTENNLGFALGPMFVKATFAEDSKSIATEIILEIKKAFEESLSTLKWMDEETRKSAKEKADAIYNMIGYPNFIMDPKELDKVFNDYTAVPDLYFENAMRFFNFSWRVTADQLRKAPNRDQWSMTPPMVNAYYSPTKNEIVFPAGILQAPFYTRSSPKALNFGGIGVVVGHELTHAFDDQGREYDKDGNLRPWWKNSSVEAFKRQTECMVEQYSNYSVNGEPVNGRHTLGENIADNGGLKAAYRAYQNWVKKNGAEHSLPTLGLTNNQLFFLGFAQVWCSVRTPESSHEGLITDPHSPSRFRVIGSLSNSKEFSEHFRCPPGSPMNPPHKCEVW

Going from `CSc1nnc([C@@H]2C[C@@H](S)CN2S(=O)(=O)c2ccc3ccccc3c2)n1C` to `CSc1nnc([C@@H]2C[C@@H](S)CN2S(=O)(=O)N(C)C)n1-c1ccccc1`, the inhibition falls from 43% to 28%.

target: T2, Endothelin-converting enzyme 1 (Homo sapiens, UniProt P42892); experiment: as §1
T2 sequence (P42892 whole entry): T1 sequence (whole entry)

Going from `CCCc1ccc(S(=O)(=O)N2C[C@H](S)C[C@H]2c2nnc(SC)n2-c2ccccc2)cc1` to `CSc1nnc([C@@H]2C[C@@H](S)CN2S(=O)(=O)c2ccc(C)cc2)n1-c1ccccc1`, the IC50 rises from 1200 nM to 4400 nM (3.7-fold). The first is the more potent here.

First: CSc1nnc([C@@H]2C[C@@H](S)CN2S(=O)(=O)c2ccc(C(F)(F)F)cc2)n1-c1ccccc1
Second: CSc1nnc([C@@H]2C[C@@H](S)CN2S(=O)(=O)c2ccc(F)cc2)n1-c1ccccc1
The IC50 of the first is 6.9-fold lower: 1300 nM for the first, 8950 nM for the second.

First: CC(C)CSc1nnc([C@@H]2C[C@@H](S)CN2S(=O)(=O)c2ccc3ccccc3c2)n1-c1ccccc1
Second: CCCSc1nnc([C@@H]2C[C@@H](S)CN2S(=O)(=O)c2ccc3ccccc3c2)n1-c1ccccc1
The IC50 of the first is 2.6-fold higher: 720 nM for the first, 280 nM for the second. The second is the more potent here.

Going from `CSc1nnc([C@@H]2C[C@@H](S)CN2C(=O)Nc2ccc(F)cc2)n1-c1ccccc1` to `CSc1nnc([C@@H]2C[C@@H](S)CN2S(=O)(=O)c2ccc(Cl)cc2)n1-c1ccccc1`, the IC50 falls from 17700 nM to 1200 nM (15-fold).

`O=S(=O)(c1ccc2ccccc2c1)N1C[C@H](S)C[C@H]1c1nnc(SCC2CC2)n1-c1ccccc1` and `CSc1nnc([C@@H]2C[C@@H](S)CN2S(=O)(=O)c2ccc3ccccc3c2)n1-c1ccccc1` are within 1.5-fold of each other in IC50: 700 nM for the first, 500 nM for the second.

First: CSc1nnc([C@@H]2C[C@@H](S)CN2S(=O)(=O)c2ccc3ccccc3c2)n1-c1ccc(F)c(Cl)c1
Second: CSc1nnc([C@@H]2C[C@@H](S)CN2S(=O)(=O)c2ccc3ccccc3c2)n1-c1ccc(C(F)(F)F)cc1
The IC50 of the first is 3.3-fold higher: 1200 nM for the first, 360 nM for the second. The second is the more potent here.

Going from `CSc1nnc([C@@H]2C[C@@H](S)CN2S(C)(=O)=O)n1-c1ccccc1` to `CCCCOC(=O)N1C[C@H](S)C[C@H]1c1nnc(SC)n1-c1ccccc1`, the IC50 falls from 15500 nM to 2700 nM (5.7-fold).

Compared with `CSc1nnc([C@@H]2C[C@@H](S)CN2S(=O)(=O)c2ccc3ccccc3c2)n1Cc1ccc(F)cc1`, `CSc1nnc([C@@H]2C[C@@H](S)CN2S(=O)(=O)c2ccc3ccccc3c2)n1-c1c(F)c(F)cc(F)c1F` is 1.7-fold higher in IC50: 150 nM for the first, 250 nM for the second.
